Experimental data: publication PMC12775434, “Ultra-large virtual screening unveils potent agonists of the neuromodulatory orphan receptor GPR139” (Nature Communications, 2025)
Several values for one entry are separate records, joined by “and”; a condition that tells them apart may be missing. Equal values may be shown once. Read-outs that look alike come from different tables or passages of the source.

Molecular target: T1, GPR139 (arrestin-3 recruitment) (Homo sapiens, UniProt Q6DWJ6)
T1 construct: expressed in transfected cells; host or cells: HEK293A (transient, Lipofectamine 2000)
T1 sequence (Q6DWJ6 1-353): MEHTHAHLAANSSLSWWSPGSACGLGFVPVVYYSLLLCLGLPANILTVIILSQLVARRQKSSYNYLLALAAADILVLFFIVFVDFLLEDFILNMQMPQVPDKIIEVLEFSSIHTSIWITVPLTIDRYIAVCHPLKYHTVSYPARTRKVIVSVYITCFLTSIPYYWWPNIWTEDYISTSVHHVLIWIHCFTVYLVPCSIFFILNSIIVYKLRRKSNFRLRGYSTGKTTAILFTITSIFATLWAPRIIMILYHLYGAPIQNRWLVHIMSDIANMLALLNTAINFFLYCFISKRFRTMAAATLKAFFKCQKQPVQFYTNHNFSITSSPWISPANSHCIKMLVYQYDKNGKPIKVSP
Assay: Arrestin-3 recruitment assay (enhanced bystander BRET), HEK293A
Format: cell-based
Settings: for Emax: HEK293-A, normalized to JNJ-63533054 (JNJ(S)); for EC50: read-out: pEC50 Arrestin-3 (converted); for Arrestin-3 recruitment: individual replicates
Experimental: Primary screening and pharmacological characterization of compounds were performed using a CHO-K1 cell line that stably expresses human GPR139 (GPR139-CHOk1). The GPR139-CHOk1 cell line was kindly provided by H. Lundbeck A/S, Denmark[24]. GPR139-CHOk1 cells were grown in Ham’s F-12 Kaighn’s Modification Medium (ThermoFisher #21127030) supplemented with 10% dialyzed fetal bovine serum (US origin, ThermoFisher #26400044), 100 units/mL Penicillin-Streptomycin (ThermoFisher #15140122), and 1 mg/mL Geneticin (ThermoFisher #11811031). […] M1R-CHOk1 cells were purchased from The Missouri S&T cDNA Resource Center (#CEM100TN00). M1R-CHOk1 cells were grown in Ham’s F12 Medium (ThermoFisher #21765029) supplemented with 10% fetal bovine serum (Brazilian origin, ThermoFisher #10270106), 100 units/mL Penicillin-Streptomycin, and 0.25 mg/mL Geneticin. HEK293A cells transiently transfected with GPR139 were used for additional pharmacological assessment of signaling pathways activated by GPR139. HEK239A cells were generously provided by Dr. Asuka Inoue, Tohoku University, Japan. HEK293A cells were grown in Dulbecco’s Modified Eagle Medium (ThermoFisher #31966047) supplemented with 10% dialyzed fetal bovine serum and 100 units/mL Penicillin-Streptomycin. Cell lines were maintained at 37 °C in humidified incubator equilibrated with 5% CO2.
The enhanced bystander BRET arrestin recruitment assay developed by the work of Donthamsetti et al.[58] was used to measure the arrestin-3 recruitment by GPR139. HEK293A cells were reverse transfected 20–24 h prior to the assay. 50,000 cells were plated in each well of white opaque tissue culture treated 96-well plates (PerkinElmer #6005680) previously coated with poly-D-lysine. The transfection solutions were prepared as described, and 10 µL transfection solution was mixed with 100 µL cells in each well. The cells in each well were transfected with 6 ng GPR139, 0.6 ng RLuc8-Arrestin3-Sp1, 6 ng GRK5, and 62.5 ng MEMlinker[doubly palmitoylated fragment of GAP43]-Citrine-SH3 using 200 nL Lipofectamine 2000 Transfection Reagent. Each transfection was normalized to 80 ng total DNA with pcDNA3.1. On the day of the experiment, the cells were washed with HEPES buffer and incubated for 2 h in HEPES buffer prior to measurements. Test compounds were diluted in HEPES buffer from DMSO stocks (final DMSO concentration of maximally 0.3%). Renilla luciferase 8 (RLuc8) substrate Coelenterazine h (Cayman Chemical #16894) was diluted in HEPES buffer to 5 µM (final). Coelenterazine h was added, and the cells were incubated for 5 min followed by stimulation with test compounds. Simultaneous dual emission was measured at 535 nm and 475 nm on LUMIstar Omega Microplate Reader (BMG Labtech) at 37 °C over 30 min. The BRET ratio of 535 nm/475 nm (Citrine/RLuc8), reflecting the translocation of arrestin from the cytosol to the membrane, was used to determine the arrestin recruitment. The BRET response-time course area under the curve of the basal response obtained with buffer condition was subtracted from the absolute response at a given test compound concentration, and the responses were normalized to the one obtained with 10 µM JNJ-63533054.
Pharmacological data and statistical analyses were performed in GraphPad Prism v9–10 (Graphpad Software Inc., San Diego, CA), which are also specifically described in the figure and table legends. The functional assay responses were normalized to buffer (0%) and Lundbeck Cmp 1a or JNJ-63533054 (100%), for Ca^2+ and IP1 experiments in the GPR139-CHOk1 stable cell line or Ca^2+, G protein activation, and arrestin-3 recruitment experiments in the HEK293A cells transiently transfected with GPR139, respectively. Data are from at least three independent experiments, unless stated otherwise. Concentration-response curves were fitted applying non-linear regression using the log (agonist) versus response model with variable slope. ANOVA was applied for comparing results and determining statistical significance. […]

| Emax | EC50 (Supplementary Table 6) | EC50 | SMILES | Arrestin-3 recruitment (log [compound] M -4.5, listed as JNJ (S)) | Arrestin-3 recruitment (log [compound] M -5.0, listed as JNJ (S)) | Arrestin-3 recruitment (log [compound] M -5.5, listed as JNJ (S)) | Arrestin-3 recruitment (log [compound] M -6.0, listed as JNJ (S)) | Arrestin-3 recruitment (log [compound] M -6.5, listed as JNJ (S)) | Arrestin-3 recruitment (log [compound] M -7.0, listed as JNJ (S)) | Arrestin-3 recruitment (log [compound] M -7.5, listed as JNJ (S)) | Arrestin-3 recruitment (log [compound] M -4.5) | Arrestin-3 recruitment (log [compound] M -5.0) | Arrestin-3 recruitment (log [compound] M -5.5) | Arrestin-3 recruitment (log [compound] M -6.0) | Arrestin-3 recruitment (log [compound] M -6.5) | Arrestin-3 recruitment (log [compound] M -7.0) | Arrestin-3 recruitment (log [compound] M -7.5) |
| --- | --- | --- | --- | --- | --- | --- | --- | --- | --- | --- | --- | --- | --- | --- | --- | --- | --- |
| 100 ± 4% | 0.158 µM | – | CC(NC(=O)CNC(=O)c1cccc(Cl)c1)c1ccccc1 (centres unmarked) [JNJ-63533054, reference compound] | 94 % of JNJ-63533054 and 101 % of JNJ-63533054 and 107 % of JNJ-63533054 | 95 % of JNJ-63533054 and 99 % of JNJ-63533054 and 103 % of JNJ-63533054 | 90 % of JNJ-63533054 and 100 % of JNJ-63533054 and 94 % of JNJ-63533054 | 85 % of JNJ-63533054 and 100 % of JNJ-63533054 and 78 % of JNJ-63533054 | 68 % of JNJ-63533054 and 81 % of JNJ-63533054 and 55 % of JNJ-63533054 | 45 % of JNJ-63533054 (2×) and 36 % of JNJ-63533054 | 8 % of JNJ-63533054 and 15 % of JNJ-63533054 and 0.123 % of JNJ-63533054 | – | – | – | – | – | – | – |
| 81 ± 5% | 2.51 µM | – | Cc1cscc1-c1nc(CC(=O)N[C@H](C)c2ccccc2)no1 [1.1(R)] | – | – | – | – | – | – | – | 72 % of JNJ-63533054 and 73 % of JNJ-63533054 and 89 % of JNJ-63533054 | 69 % of JNJ-63533054 and 65 % of JNJ-63533054 (2×) | 54 % of JNJ-63533054 and 40 % of JNJ-63533054 and 41 % of JNJ-63533054 | 36 % of JNJ-63533054 and 10 % of JNJ-63533054 and 17 % of JNJ-63533054 | 17 % of JNJ-63533054 and 3.28 % of JNJ-63533054 and 1.44 % of JNJ-63533054 | 12 % of JNJ-63533054 and 3.28 % of JNJ-63533054 and 2 % of JNJ-63533054 | 1.13 % of JNJ-63533054 and 0.124 % of JNJ-63533054 and 0.145 % of JNJ-63533054 |
| 96 ± 1% | 0.0794 µM | – | Cc1cscc1-c1nc(CC(=O)N[C@@H](C)c2ccccc2)no1 [1.1(S)] | – | – | – | – | – | – | – | 96 % of JNJ-63533054 and 88 % of JNJ-63533054 and 101 % of JNJ-63533054 | 90 % of JNJ-63533054 and 91 % of JNJ-63533054 (2×) | 89 % of JNJ-63533054 and 102 % of JNJ-63533054 and 91 % of JNJ-63533054 | 109 % of JNJ-63533054 and 107 % of JNJ-63533054 and 84 % of JNJ-63533054 | 82 % of JNJ-63533054 and 87 % of JNJ-63533054 and 66 % of JNJ-63533054 | 57 % of JNJ-63533054 and 71 % of JNJ-63533054 and 50 % of JNJ-63533054 | 23 % of JNJ-63533054 and 32 % of JNJ-63533054 and 4.63 % of JNJ-63533054 |
| – | – | 15.8 µM | C[C@@H](NC(=O)CNC(=O)c1cccc(Cl)c1)c1ccccc1 [JNJ(R), reference compound] | – | – | – | – | – | – | – | 43 % of JNJ-63533054 and 70 % of JNJ-63533054 and 77 % of JNJ-63533054 | 41 % of JNJ-63533054 and 39 % of JNJ-63533054 and 33 % of JNJ-63533054 | 37 % of JNJ-63533054 and 35 % of JNJ-63533054 and 17 % of JNJ-63533054 | 20 % of JNJ-63533054 and 22 % of JNJ-63533054 and 12 % of JNJ-63533054 | 14 % of JNJ-63533054 and 8 % of JNJ-63533054 and 1.75 % of JNJ-63533054 | 4 % of JNJ-63533054 and 10 % of JNJ-63533054 and 2 % of JNJ-63533054 | 0 % of JNJ-63533054 (2×) and 0.153 % of JNJ-63533054 |
